US20070112068A1, “Nitrile compound and its use in pest control” (priority 2003, published 2007)

Tests used:
Type in all cases: in vivo
Blattella germanica [1] = test: Experimental Example 15: treated filter paper in paper box, Blattella germanica; details: 0.1 ml of 2.5% (w/v) acetone solution on filter paper in paper box; after 7 days
Experimental: 2.5% (w/v) solutions of the present compounds (23), (24) and (31) in acetone were prepared. 0.1 ml of the solution was added dropwise onto a filter paper with 2 cm×2 cm and then air-dried. This filter paper was attached to the center of the inside bottom of a paper box having 10 cm (width)×2 cm (height)×7 cm (depth) with a two-sided tape. One hole of 5 mm in width and 2 cm in height was made through one side of this box. This box was placed in a plastic vat with 25 cm×20 cm×8 cm in height and therein 10 females and 10 males of Blattella germanica were released. The inside wall of the plastic vat used in this experiment was coated with talc for preventing the escape of cockroaches. The plastic vat contained feed and water and left at 25° C. After 7 days, Blattella germanica was observed and the death rate of the pest was calculated. This experiment was repeated two times.

Blattella germanica [2] = test: Experimental Example 14: topical application, Blattella germanica; details: 1 μl of 1% (w/v) acetone solution onto sternum of thorax of female imagoes; after 7 days
Experimental: 1% (w/v) solutions of the present compounds (4), (20), (22), (23), (24), (29), (30), (31), (35), (36), (37), (38), (46), (53), (54), (56), (57), (59), (61), (66), (67), (68), (69), (70), (71), (79), (81), (83), (84), (89), and (90) in acetone were prepared. Onto the sternum of the thorax of female imagoes of Blattella germanica, 1 μl of the acetone solution was added dropwise. The imagoes were transferred to a plastic cup having a diameter of about 9 cm and a height of about 4.5 cm and left together with feed and water at 25° C. After 7 days, the number of surviving Blattella germanica was examined and the death rate of the pest was calculated. 10 imagoes of Blattella germanica were put in a cup and three replicate experiments were performed.

Formica fusca japonica [3] = test: Experimental Example 20: poison bait, Formica fusca japonica; details: poison bait: 1 ml of 0.1% by weight acetone solution per 1 g unrefined sugar; 0.5 g bait; after 48 hours
Experimental: 1 ml of a 0.1% by weight solution of the present compound (31) in acetone was added dropwise to 1 g of a commercially available powdery unrefined sugar, mixed thoroughly and then air-dried to obtain a poison bait. A cotton ball impregnated with water and 0.5 g of the poison bait on an aluminum dish were placed in a plastic cup (860 mL) containing 10 imagoes of Formica fusca japonica. After 48 hours, the number of surviving Formica fusca japonica was examined and the death rate of the pest was calculated.

Blattalla germanica = test: Experimental Example 3: treated filter paper with sucrose bait, German cockroach; details: 500 ppm, 0.7 ml on filter paper; two male imagoes; after 6 days
Experimental: A filter paper having a diameter of 5.5 cm was spread on the bottom of a polyethylene cup having a diameter of 5.5 cm and 0.7 ml of the experimental pesticidal solution was added dropwise onto the filter paper. As a bait 30 mg of sucrose was uniformly placed on the filter paper. Into the polyethylene cup, two male Blattalla germanica imagoes were released and the cup was sealed with a lid. After 6 days, the number of surviving Blattalla germanica was examined and the death rate of the pest was calculated.

Formica fusca japonica [4] = test: Experimental Example 19: direct oil spray in CSMA chamber, Formica fusca japonica; details: 0.4 ml of 0.0625% (w/v) oil sprayed directly; after 72 hours
Experimental: 18.8 mg of the present compound (31) was dissolved in 30 mL of a mixed solvent of 90 parts by weight of Isopar M (isoparaffin, the registered trade name of Exxon Chemical) and 10 parts by weight of dichloromethane to prepare a 0.0625% (w/v) oil. A plastic cup (200 mL) containing 10 imagoes of Formica fusca japonica was placed on the bottom of a CSMA chamber (width: 46 cm, depth: 46 cm, height: 70 cm). 0.4 ml of the oil was directly sprayed on the test Formica fusca japonica from the upper side of the CSMA chamber. After 10 seconds from spraying, the container containing Formica fusca japonica was removed. Formica fusca japonica was transferred to another plastic container (200 mL) and left together with feed and water at 25° C. After 72 hours from pesticide treatment, Formica fusca japonica was observed and the death rate of the pest was calculated.

Clogmia albipunctata = test: Experimental Example 9: treated filter paper suspended in glass chamber, Clogmia albipunctata; details: 2.5 ml of 2% (w/v) acetone solution on filter paper; 70 cm cube chamber; 2 hours exposure, 24 hours later
Experimental: A 2% (w/v) solution of the present compound (31) in acetone was prepared. Onto a filter paper with 10 cm×12.5 cm, 2.5 ml of the solution was added dropwise uniformly and then air-dried. This filter paper was suspended from the center of the ceiling of a glass chamber with 70 cm (width)×70 cm (depth)×70 cm (height) and therein 20 imagoes of Clogmia albipunctata were released. After 2 hours, all test pests were collected, put into a plastic cup together with absorbent cotton impregnated with 5% sugar water, and then left at 25° C. After 24 hours, the number of surviving Clogmia albipunctata was examined and the death rate was calculated (2 repetitions).

Blattella germanica [5] = test: Experimental Example 22: treated filter paper suspended in chamber, Blattella germanica; details: 10 mL of 10% (w/v) acetone solution on filter paper; 70 cm cube chamber; after 72 hours
Experimental: A 10% (w/v) solution of the present compound (31) in acetone is prepared. 10 mL of the solution is uniformly added dropwise to a filter paper with 10 cm×25 cm and then air-dried. The filter paper is suspended from the center of the ceiling of a chamber with 70 cm (width)×70 cm (depth)×70 cm (height). After 20 imagoes (10 males and 10 females) of Blattella germanica are released, the door of the chamber is closed. Feed and water are placed in the glass chamber.

Halyomorpha mista = test: Experimental Example 24: direct oil spray in CSMA chamber, Halyomorpha mista; details: 0.4 ml of 5% (w/v) oil sprayed directly; after 72 hours
Experimental: 1.5 g of the present compound (31) is dissolved in 30 mL of a mixed solvent of 90 parts by weight of Isopar M (isoparaffin; the registered trade name of Exxon Chemical) and 10 parts by weight of dichloromethane to prepare a 5% (w/v) oil. A plastic cup (860 mL) containing 10 imagoes of Halyomorpha mista is covered with a nylon net (mesh width: 2 mm) and then placed on the bottom of a CSMA chamber (width: 46 cm, depth: 46 cm, height: 70 cm). 0.4 ml of the oil is directly sprayed on the test Halyomorpha mista from the upper side of the CSMA chamber. After 10 seconds from spraying, the cup containing Halyomorpha mista is removed, and feed and water are placed in the cup.

With N#CC(C#N)(CCC(F)(F)F)CC(F)(F)C(F)(F)C(F)(F)C(F)F [(31)] the “death rate of the pest” value (Blattella germanica [1]) was 100%, the “death rate of the pest” value (Blattella germanica [2]) was 100% and the “death rate of Formica fusca japonica” value (Formica fusca japonica [3]) was 100%. For the same molecule, the “death rate of the pest” value (Blattalla germanica) was 100%, the “death rate of the pest” value (Formica fusca japonica [4]) was 100% and the “death rate of the pest” value (Clogmia albipunctata) was 83%. The pesticidal effect (Blattella germanica [5]) was “pesticidal effect on Blattella germanica is confirmed” and the pesticidal effect (Halyomorpha mista) was “pesticidal effect on Halyomorpha mista is confirmed”.
